The test system of test [1] is Angiotensin I induced pressor response. Briefly: inhibition of the angiotensin I induced pressor response in normotensive rats. The format is in vivo, rat. As to conditions: 10 mg/Kg p.o., angiotensin I 300 ng/kg i.v. How it is done: The in vivo test for intravenously administered compounds is performed with male, normotensive rats, which are anesthetized with sodium metofan. A femoral artery and femoral vein are cannulated respectively for direct blood pressure measurement on i.v. administration of angiotensin I and i.v. or p.o. administration of a compound of this invention. After the basal blood pressure is stabilized, pressor responses to 3 challenges of 300 ng/kg angiotensin I i.v., at 15 minute intervals, are obtained. Such pressure responses are usually again obtained at 15, 30, 60 and 90 minutes, and then every hour up to 6 hours after i.v. or p.o. administration of the compound to be tested, and compared with the initial responses. Any observed decrease of said pressor response is an indication of Angiotensin I converting enzyme inhibition.

For test [2], the target named is T1, angiotensin-converting enzyme (ACE) (Oryctolagus cuniculus, UniProt P12822).
T1 sequence (P12822 34-1310): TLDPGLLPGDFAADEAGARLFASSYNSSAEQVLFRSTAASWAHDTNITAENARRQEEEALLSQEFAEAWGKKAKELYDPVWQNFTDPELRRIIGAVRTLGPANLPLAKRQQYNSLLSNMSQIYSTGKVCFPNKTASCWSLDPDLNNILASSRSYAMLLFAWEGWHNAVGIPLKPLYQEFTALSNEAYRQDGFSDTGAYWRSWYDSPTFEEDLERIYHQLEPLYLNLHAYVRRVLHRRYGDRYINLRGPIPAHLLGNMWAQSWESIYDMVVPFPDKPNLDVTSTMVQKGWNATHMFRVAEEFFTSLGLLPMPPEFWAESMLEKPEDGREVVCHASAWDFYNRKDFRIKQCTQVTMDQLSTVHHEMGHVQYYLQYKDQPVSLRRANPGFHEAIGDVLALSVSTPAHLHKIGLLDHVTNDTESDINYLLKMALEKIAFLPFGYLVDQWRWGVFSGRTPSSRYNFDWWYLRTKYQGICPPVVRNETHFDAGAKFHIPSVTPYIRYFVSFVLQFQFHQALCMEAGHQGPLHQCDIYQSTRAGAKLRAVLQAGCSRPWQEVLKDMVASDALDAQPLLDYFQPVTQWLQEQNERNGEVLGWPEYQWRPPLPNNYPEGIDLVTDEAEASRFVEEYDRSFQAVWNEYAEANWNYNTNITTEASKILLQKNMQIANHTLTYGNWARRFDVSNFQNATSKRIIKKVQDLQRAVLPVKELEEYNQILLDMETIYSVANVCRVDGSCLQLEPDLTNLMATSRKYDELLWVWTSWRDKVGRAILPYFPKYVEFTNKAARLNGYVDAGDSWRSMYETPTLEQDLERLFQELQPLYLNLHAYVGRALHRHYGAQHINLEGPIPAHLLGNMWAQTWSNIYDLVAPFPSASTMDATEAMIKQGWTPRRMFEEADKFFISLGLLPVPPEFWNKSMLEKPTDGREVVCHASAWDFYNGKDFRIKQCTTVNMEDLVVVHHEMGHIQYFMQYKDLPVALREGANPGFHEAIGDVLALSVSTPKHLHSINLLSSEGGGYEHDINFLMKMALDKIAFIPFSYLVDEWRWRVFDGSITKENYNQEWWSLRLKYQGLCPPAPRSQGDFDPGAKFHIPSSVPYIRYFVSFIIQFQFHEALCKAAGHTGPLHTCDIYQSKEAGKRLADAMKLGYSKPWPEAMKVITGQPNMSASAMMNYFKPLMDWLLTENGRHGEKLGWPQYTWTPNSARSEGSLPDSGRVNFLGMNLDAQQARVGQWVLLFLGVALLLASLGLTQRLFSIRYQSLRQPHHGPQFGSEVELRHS
Briefly: in vitro inhibition of angiotensin-converting enzyme (ACE). The format is biochemical. On the procedure:
(§1) In vitro testing is most appropriate for the free carboxylic acids of the invention. The test compound is dissolved in dimethyl sulfoxide, ethanol, or 0.25 M sodium bicarbonate solution, and the solution is diluted with buffer to the desired concentration.
The buffer for the ACE assay is 300 mM NaCl, 100 mM KH2 PO4 (pH 8.3). The reaction is initiated by the addition of 100 μl of hippuryl-histidyl-leucine (2 mg/ml) to tubes containing enzyme and drug in a volume of 150 μl and tubes are incubated for 30 minutes at 37° C. The reaction is terminated by the addition of 0.75 ml 0.6 N NaOH. 100 μl of freshly prepared 0-pthaldehyde solution (2 mg/ml in methanol) is added to the tubes, the contents are mixed and allowed to stand at room temperature. After 10 minutes, 100 μl of 6 N HCl is added. The tubes are centrifuged and the supernatant optical density is read at 360 nm.

For test [3], the target named is T2, neutral endopeptidase (NEP, EC 3.4.24.11) (Rattus norvegicus, UniProt P07861).
T2 construct: rat kidney cortex membranes prepared by method of Maeda; from tissue; host or cells: rat kidney cortex membranes
T2 sequence (P07861 1-750): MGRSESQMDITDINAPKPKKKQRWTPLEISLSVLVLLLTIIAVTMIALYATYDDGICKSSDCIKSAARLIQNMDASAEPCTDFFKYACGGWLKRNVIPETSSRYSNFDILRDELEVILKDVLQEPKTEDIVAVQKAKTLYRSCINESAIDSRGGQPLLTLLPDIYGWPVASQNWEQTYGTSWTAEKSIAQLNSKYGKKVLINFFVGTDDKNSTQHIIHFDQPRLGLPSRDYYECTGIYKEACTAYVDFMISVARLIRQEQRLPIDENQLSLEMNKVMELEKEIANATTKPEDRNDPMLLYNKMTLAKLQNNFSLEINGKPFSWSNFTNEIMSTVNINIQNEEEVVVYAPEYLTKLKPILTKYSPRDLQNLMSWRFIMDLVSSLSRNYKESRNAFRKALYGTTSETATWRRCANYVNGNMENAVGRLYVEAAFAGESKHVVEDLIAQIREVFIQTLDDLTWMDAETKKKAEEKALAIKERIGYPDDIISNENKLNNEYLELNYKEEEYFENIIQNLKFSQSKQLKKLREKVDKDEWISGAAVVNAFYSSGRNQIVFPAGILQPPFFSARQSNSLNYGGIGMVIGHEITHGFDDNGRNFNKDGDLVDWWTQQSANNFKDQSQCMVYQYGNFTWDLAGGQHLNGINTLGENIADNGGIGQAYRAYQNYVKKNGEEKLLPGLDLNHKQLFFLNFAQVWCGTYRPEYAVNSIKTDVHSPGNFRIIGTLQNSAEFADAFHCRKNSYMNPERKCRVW
Briefly: in vitro inhibition of neutral endopeptidase (GAAP assay). The format is biochemical. As to conditions: GAAP 500 μM, rat kidney cortex membranes, pH 7.4, 25° C., 10 minutes. How it is done: as §1
The in vitro inhibition of neutral endopeptidase (NEP, EC 3.4.24.11 ) can be determined as follows:
Neutral endopeptidase 3.4.24.11 activity is determined by the hydrolysis of the substrate glutaryl-Ala-Ala-Phe-2-naphthylamide (GAAP) using a modified procedure of Orlowski and Wilk (1981). The incubation mixture (total volume 125 μl) contains 4.2 μg of protein (rat kidney cortex membranes prepared by method of Maeda et at, 1983), 50 mM iris buffer, pH 7.4 at 25° C., 500 μM substrate (final concentration), and leucine aminopeptidase M (2.5 μg). The mixture is incubated for 10 minutes at 25° C. and 100 μl of fast garnet (250 μg fast garnet/ml of 10% Tween 20 in 1 M sodium acetate, pH 4.2) is added. Enzyme activity is measured spectrophotometrically at 540 nm. One unit of NEP 24.11 activity is defined as 1 nmol of 2-naphthylamine released per minute at 25° C at pH 7.4. IC50 values are determined, i.e. the concentration of test compound required for 50% inhibition of the release of 2-naphthylamine.

Each structure is given as a SMILES string. Like-named read-outs stand apart in the source and are kept apart here.

In the case of `CCOC(=O)[C@H](Cc1ccc(O)cc1)NC(=O)C1(NC(=O)[C@@H](SC(C)=O)C(C)C)CCCC1` [1 (b), N-[[1-[(2(S)-acetylmercapto-3-methyl-1-oxobutyl)amino]-1-cyclopentyl]carbonyl]-L-tyrosine ethyl ester], the “duration of inhibition of the Angiotensin I induced pressor response” value in test [1] is reported as “six”.
Consider `CC(C)[C@H](S)C(=O)NC1(C(=O)N[C@@H](Cc2ccc(O)cc2)C(=O)O)CCCC1` [Example 2a], for which the half-maximal inhibitory concentration (IC50) was about 7 nM in test [2] (hippuryl-histidyl-leucine substrate, pH 8.3, 37° C., 30 minutes, read-out: IC50 in the ACE in vitro assay) and about 2 nM in test [3].
`COc1ccc(C[C@H](NC(=O)C2(NC(=O)[C@@H](S)C(C)C)CCCC2)C(=O)O)cc1` [Example 2i]: the IC50 in test [2] is about 19 nM; in test [3] it was about 2.2 nM.

A word on the IC50: it is the concentration that inhibits the measured activity by half.

The values are drawn from patent US5506244A, “Cyclic amino acid derivatives” (Ciba-Geigy Corporation, priority 1994, dated 1996).
